The source of these data is patent US20180208605A1, “Substituted Aza Compounds as IRAK-4 Inhibitors” (AURIGENE DISCOVERY TECHNOLOGIES LIMITED, priority 2015, published 2018).

Each structure is given as a SMILES string. Where a name gives a salt, the structure may show the parent alone.

This assay addresses T1, recombinant IRAK-4 kinase (Homo sapiens, UniProt Q9NWZ3).
T1 construct: purchased Millipore, USA
T1 sequence (Q9NWZ3 1-460): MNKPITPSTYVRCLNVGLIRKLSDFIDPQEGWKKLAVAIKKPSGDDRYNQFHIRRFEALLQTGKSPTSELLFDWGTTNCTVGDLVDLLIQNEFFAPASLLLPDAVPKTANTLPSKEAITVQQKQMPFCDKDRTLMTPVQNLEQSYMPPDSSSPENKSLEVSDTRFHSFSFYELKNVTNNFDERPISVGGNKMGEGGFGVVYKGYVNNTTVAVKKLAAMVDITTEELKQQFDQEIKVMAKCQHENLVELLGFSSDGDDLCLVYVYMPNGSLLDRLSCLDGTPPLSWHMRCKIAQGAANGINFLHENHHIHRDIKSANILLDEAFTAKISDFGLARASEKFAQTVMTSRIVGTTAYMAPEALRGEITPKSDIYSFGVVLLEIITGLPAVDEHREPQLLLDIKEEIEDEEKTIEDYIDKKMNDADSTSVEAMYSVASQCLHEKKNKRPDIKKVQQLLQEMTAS
The assay can be described thus: IRAK-4 Biochemical Assay (TR-FRET, percent inhibition). Particulars: TR-FRET, 20 μM ATP, 100 nM Biotin Histone H3; for inhibition at 0.1 µM: read-out: % inhibition of IRAK-4 @0.1 μM, compound at 0.1 μM; for inhibition at 1 µM: read-out: % inhibition of IRAK-4 @ 1 μM, compound at 1 μM. An outline of the steps:
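IRAK-4 pre-incubated with compound 30 min at room temperature in Tris-HCl pH 7.5 buffer with MgCl2, MnCl2 and DTT, then reacted 30 min with 100 nM biotin-histone H3 and 20 μM ATP. EDTA stop with Eu-anti-phospho-H3 (Ser10) and APC-streptavidin. Percent inhibition derived from the 665/615 nm emission ratio at 340 nm excitation.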

`Cc1cc(-c2nc(C(=O)Nc3cc4oc(N5CCOCC5)nc4nc3N3CCCC(O)(CO)C3)co2)ccn1` (stereo not shown) [Example 15, N-(5-(3-hydroxy-3-(hydroxymethyl)piperidin-1-yl)-2-morpholinooxazolo[4,5-b]pyridin-6-yl)-2-(2-methylpyridin-4-yl)oxazole-4-carboxamide hydrochloride]: the inhibition at 0.1 µM stood at 96% and the inhibition at 1 µM was 100%.

Take `O=C(Nc1cc2sc(N3CCOCC3)nc2nc1N1CCCCC1)c1cccc(N2CCC[C@H](O)C2)n1` [Example 29, (S)-6-(3-hydroxypiperidin-1-yl)-N-(2-morpholino-5-(piperidin-1-yl)thiazolo[4,5-b]pyridin-6-yl)picolinamide]: the inhibition at 0.1 µM amounted to 98% and the inhibition at 1 µM is 99%.

`O=C(Nc1cc2sc(N3CCOCC3)nc2nc1C1CC1)c1cnn2ccc(N3CCC(O)CC3)nc12` [Example 101, N-(5-cyclopropyl-2-morpholinothiazolo[4,5-b]pyridin-6-yl)-5-(4-hydroxypiperidin-1-yl)pyrazolo[1,5-a]pyrimidine-3-carboxamide]: the inhibition at 0.1 µM was 96% and the inhibition at 1 µM turned out to be 98%.

As for `NCCNc1ccn2ncc(C(=O)Nc3cc4sc(N5CCOCC5)nc4nc3C3CC3)c2n1` [Example 22, 5-((2-aminoethyl)amino)-N-(5-cyclopropyl-2-morpholinothiazolo[4,5-b]pyridin-6-yl)pyrazolo[1,5-a]pyrimidine-3-carboxamide], the inhibition at 0.1 µM came out at 97% and the inhibition at 1 µM came to 98%.

For `O=C(Nc1cc2sc(N3CCOCC3)nc2nc1C1CC1)c1cnn2cccnc12` [Example 105, N-(5-cyclopropyl-2-morpholinothiazolo[4,5-b]pyridin-6-yl)pyrazolo[1,5-a]pyrimidine-3-carboxamide], the inhibition at 0.1 µM stood at 96% and the inhibition at 1 µM was determined as 97%.

In the case of `Cc1cc(-c2c[nH]c(C(=O)Nc3cc4sc(N5CCOCC5)nc4nc3N3CC[C@@H](O)C3)n2)ccn1` [Example 72, (R)-N-(5-(3-hydroxypyrrolidin-1-yl)-2-morpholinothiazolo[4,5-b]pyridin-6-yl)-4-(2-methylpyridin-4-yl)-1H-imidazole-2-carboxamide 2,2,2-trifluoroacetate], the inhibition at 0.1 µM worked out at 98% and the inhibition at 1 µM worked out at 97%.

`Nc1ccc(-c2cccc(C(=O)Nc3cc4sc(N5CCOCC5)nc4nc3N3CCCCC3)n2)cn1` [Example 75, 6′-amino-N-(2-morpholino-5-(piperidin-1-yl)thiazolo[4,5-b]pyridin-6-yl)-[2,3′-bipyridine]-6-carboxamide]: the inhibition at 0.1 µM amounted to 98% and the inhibition at 1 µM was 78%.

Take `NC1CCN(c2ccn3ncc(C(=O)Nc4cc5sc(N6CCOCC6)nc5nc4C4CC4)c3n2)C1` (stereo not shown) [Example 23, 5-(3-aminopyrrolidin-1-yl)-N-(5-cyclopropyl-2-morpholinothiazolo[4,5-b]pyridin-6-yl)pyrazolo[1,5-a]pyrimidine-3-carboxamide hydrochloride]: the inhibition at 0.1 µM was 86% and the inhibition at 1 µM came out at 97%.

For `Nc1cccc(-c2nc(C(=O)Nc3cc4oc(N5CCOCC5)nc4nc3N3CC[C@@H](O)C3)co2)n1` [Example 87, (R)-2-(6-aminopyridin-2-yl)-N-(5-(3-hydroxypyrrolidin-1-yl)-2-morpholinooxazolo[4,5-b]pyridin-6-yl)oxazole-4-carboxamide hydrochloride], the inhibition at 0.1 µM is 21% and the inhibition at 1 µM was determined as 57%.

As for `Cc1cc(-c2nc(C(=O)Nc3cc4oc(N5CCOCC5)nc4nc3N3CCCC3=O)co2)ccn1` [Example 89, 2-(2-methylpyridin-4-yl)-N-(2-morpholino-5-(2-oxopyrrolidin-1-yl)oxazolo[4,5-b]pyridin-6-yl)oxazole-4-carboxamide hydrochloride], the inhibition at 0.1 µM is 26% and the inhibition at 1 µM came to 73%.

In the case of `CCOC(=O)O[C@H]1CCN(c2cccc(C(=O)Nc3cc4sc(N5CCOCC5)nc4nc3N3CCCCC3)n2)C1` [Example 58, (S)-ethyl (1-(6-((2-morpholino-5-(piperidin-1-yl)thiazolo[4,5-b]pyridin-6-yl)carbamoyl)pyridin-2-yl)pyrrolidin-3-yl)carbonate], the inhibition at 0.1 µM turned out to be 71% and the inhibition at 1 µM was determined as 96%.

In the case of `Cc1cc(-c2c[nH]c(C(=O)Nc3cc4sc(N5CCOCC5)nc4nc3N3CC[C@@H](O)C3)c2)ccn1` [Example 73, (R)-N-(5-(3-hydroxypyrrolidin-1-yl)-2-morpholinothiazolo[4,5-b]pyridin-6-yl)-4-(2-methylpyridin-4-yl)-1H-pyrrole-2-carboxamide], the inhibition at 0.1 µM was found to be 69% and the inhibition at 1 µM was determined as 97%.

With `Nc1cc(-c2cccc(C(=O)Nc3cc4sc(N5CCOCC5)nc4nc3N3CCCCC3)n2)ccn1` [Example 83, 2′-amino-N-(2-morpholino-5-(piperidin-1-yl)thiazolo[4,5-b]pyridin-6-yl)-[2,4′-bipyridine]-6-carboxamide], the inhibition at 0.1 µM is 99% and the inhibition at 1 µM amounted to 98%.

`NC1CCCN(c2ccn3ncc(C(=O)Nc4cc5sc(N6CCOCC6)nc5nc4C4CC4)c3n2)C1` (stereo not shown) [Example 21, 5-(3-aminopiperidin-1-yl)-N-(5-cyclopropyl-2-morpholinothiazolo[4,5-b]pyridin-6-yl)pyrazolo[1,5-a]pyrimidine-3-carboxamide]: the inhibition at 0.1 µM was found to be 97% and the inhibition at 1 µM turned out to be 98%.

By inhibition is commonly meant the relative decrease from the control value, in per cent.
